According to PubChem BioAssay (NCI):
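1) Cells in 96-well plates. 2) Compound, 48 h, 5 concentrations. 3) Linear interpolation between surrounding doses. 4) Unreached endpoint = highest concentration. GI50 marks 50% less growth. TGI is the concentration that stops growth completely.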

Key:
Assay in all cases: NCI anticancer screen, dose series, 48 h
SF-295 CNS = system: SF-295 CNS
COLO 205 colon = system: COLO 205 colon
MDA-MB-231 breast = system: MDA-MB-231 breast
HCT-116 colon = system: HCT-116 colon
K-562 leukemia = system: K-562 leukemia
HT29 colon = system: HT29 colon
SK-MEL-28 melanoma = system: SK-MEL-28 melanoma
RXF 393 renal = system: RXF 393 renal
NCI-H522 lung = system: NCI-H522 lung
HCC-2998 colon = system: HCC-2998 colon

SMILES	GI50 (SF-295 CNS)	TGI (SF-295 CNS)	GI50 (COLO 205 colon)	TGI (COLO 205 colon)	GI50 (MDA-MB-231 breast)	TGI (MDA-MB-231 breast)	GI50 (HCT-116 colon)	TGI (HCT-116 colon)	GI50 (K-562 leukemia)	TGI (K-562 leukemia)	GI50 (HT29 colon)	TGI (HT29 colon)	GI50 (SK-MEL-28 melanoma)	TGI (SK-MEL-28 melanoma)	GI50 (RXF 393 renal)	TGI (RXF 393 renal)	TGI (NCI-H522 lung)	TGI (HCC-2998 colon)	GI50 (NCI-H522 lung)	GI50 (HCC-2998 colon)
O=[N+]([O-])c1ccc(N/N=C\c2cc(Cl)ccc2O)nc1	2150 nM	11.7 µM	5.06 µM	> 100 µM	3.88 µM	33.1 µM	1.2 µM	12.5 µM	2090 nM	> 100 µM	4.9 µM	> 100 µM	3.65 µM	> 100 µM	5.66 µM	38.8 µM				
ClC(=Nc1cccc2ccccc12)N(c1ccccc1)c1ccccc1		> 100 µM				> 100 µM		> 100 µM		> 100 µM		> 100 µM		> 100 µM		> 100 µM	> 100 µM	54.8 µM		
O=c1c(Cl)nnc2sc3ccccc3n12	45600 nM	> 100 µM	47 µM	> 100 µM	14.2 µM	> 100 µM	20.4 µM	68.3 µM	26000 nM	> 100 µM	53.7 µM	> 100 µM	59 µM	> 100 µM	27.8 µM	81.9 µM	> 100 µM		> 100000 nM	
CC1(C)CC(=O)C2=C(C1)NC(SSC1=C(C#N)C(c3ccccc3)C3=C(CC(C)(C)CC3=O)N1)=C(C#N)C2c1ccccc1 (configuration not stated)	112 µg/mL	> 150 µg/mL	29.5 µg/mL	51.5 µg/mL	23.4 µg/mL	45.1 µg/mL	26.3 µg/mL	47 µg/mL	42.3 µg/mL	145 µg/mL	26.8 µg/mL	48.2 µg/mL	27.7 µg/mL	48.6 µg/mL	25.7 µg/mL	47 µg/mL	47.7 µg/mL	52.6 µg/mL	26.1 µg/mL	27.8 µg/mL
CC(=O)c1ccc(Nc2cc(-n3ccnc3)nc3ccccc23)cc1	2800 nM	9.53 µM	> 100 µM	> 100 µM	3.64 µM	18.1 µM	30.5 µM	> 100 µM	11400 nM	81.5 µM	60.7 µM	> 100 µM	29.8 µM	> 100 µM	26 µM	76.8 µM	> 100 µM	> 100 µM	87900 nM	> 100 µM
Cc1ccc2c(c1)NC(c1ccc(C(=O)O)cc1)c1cccn1-2 (configuration not stated)		> 100 µM		> 100 µM		> 100 µM		> 100 µM		> 100 µM		> 100 µM		> 100 µM		50.2 µM				
COc1cc[nH]c1/C=C1\C(=O)Nc2ccc(F)c(C#C[C@@H](O)[C@@H](N)[C@@H](C)O)c21	689 nM	3.44 µM	0.303 µM	0.743 µM	0.485 µM	2.37 µM	0.323 µM	2.89 µM	651 nM	3.44 µM	0.448 µM	1.49 µM	0.648 µM	2.86 µM	0.279 µM	0.955 µM	1.77 µM	2.64 µM	575 nM	0.727 µM
O=[N+]([O-])c1ccc(Sc2ncccn2)c([N+](=O)[O-])c1	5930 nM	20 µM	3.11 µM	10.8 µM	5.31 µM	17.1 µM	3.43 µM	11.8 µM	2520 nM	12.1 µM	3.39 µM	12.9 µM	3.89 µM	13.5 µM	0.0489 µM	3.23 µM	3.11 µM	26.5 µM	1640 nM	13 µM
O=C1CC(=O)N(C2CCCCC2)C(=O)N1c1ccccc1S(=O)(=O)Oc1ccccc1		> 100 µM		> 100 µM		> 100 µM		> 100 µM		85.9 µM		> 100 µM		> 100 µM		> 100 µM		> 100 µM		
O/N=C1\CCc2cc(-c3nc(C4CCNCC4)[nH]c3-c3ccncc3)ccc21	> 25000 nM	> 25 µM	2.78 µM	> 25 µM	> 25 µM	> 25 µM	> 25 µM	> 25 µM	> 25000 nM	> 25 µM	> 16.4 µM	> 25 µM	1.5 µM	> 21.3 µM	> 25 µM	> 25 µM	> 25 µM	> 25 µM	> 25000 nM	> 25 µM
CCCCOC(=O)C(=O)C(CC(C(=O)Cc1ccccc1)c1ccccc1)C(=O)C=C(C)C (configuration not stated)		> 100 µM		> 100 µM		> 100 µM		> 100 µM				> 100 µM		> 100 µM		> 100 µM	> 100 µM	> 100 µM		
COc1cc(O)c(C(=O)/C=C/c2ccccc2)c(OC)c1		26.9 µM		28 µM		24.2 µM		20.1 µM				22.4 µM		13.1 µM		32.8 µM	12.1 µM	14.1 µM		
COc1cc2c3c(n(C)c(=O)c2cc1OC)-c1cc2c(cc1/C3=C\CCCCN)OCO2	3560 nM	15.2 µM	27.5 µM	> 100 µM	2.94 µM	11.4 µM			6220 nM	> 100 µM	7.45 µM	> 100 µM	28.1 µM	> 100 µM	36 µM	57.1 µM	9.24 µM		2020 nM	
COc1ccc(/C(=C/c2cc(OC)c(OC)c(OC)c2)[N+](=O)[O-])cc1	2090 nM	5.34 µM	1.79 µM	3.74 µM	1.47 µM	3.28 µM			1710 nM	> 100 µM	3.68 µM	8.98 µM	1.88 µM	3.9 µM	1.73 µM	3.32 µM	3.62 µM	3.28 µM	1950 nM	1.81 µM
O=C1c2ccccc2-c2c1c1ccccc1c(=O)n2CCO		> 96.3 µM		> 100 µM		> 100 µM		> 79.3 µM		> 100 µM		> 100 µM		> 100 µM		> 100 µM	> 100 µM	> 100 µM		
